One may read the viscosity as the internal friction of a fluid under shear.

For 3 compounds, viscosity results are on record in the NIST ThermoML archive (doi:10.1016/j.jct.2004.07.006).

Numbers after ± are expanded uncertainties.

A short description of this data set: mn = molality of the nth substance listed, in mol/kg. To be noted: 298.15 K, 101.33 kPa, Liquid.

As for `NCC(=O)NCC(=O)O` [glycylglycine] + O, the viscosity is, setting by setting: (m1 = 0.0995) 0.9265 ± 0.03 mPa·s; (m1 = 0.0998) 0.9265 ± 0.03 mPa·s; (m1 = 0.5004) 1.062 ± 0.034 mPa·s; (m1 = 0.7502) 1.145 ± 0.036 mPa·s.

With `NCC(=O)O` [2-aminoacetic acid] + O, the viscosity is, setting by setting: (m1 = 0.4993) 0.9561 ± 0.031 mPa·s; (m1 = 0.7501) 0.9914 ± 0.032 mPa·s; (m1 = 1) 1.028 ± 0.033 mPa·s; (m1 = 1.499) 1.106 ± 0.035 mPa·s; (m1 = 1.5) 1.106 ± 0.035 mPa·s; (m1 = 2) 1.189 ± 0.037 mPa·s.

`C[C@H](N)C(=O)O` [(S)-2-aminopropanoic acid] + O: the viscosity (m1 = 0.1002) is given as 0.9179 ± 0.03 mPa·s, the viscosity (m1 = 0.4992) turned out to be 1.017 ± 0.032 mPa·s, the viscosity (m1 = 0.7503) is recorded as 1.08 ± 0.034 mPa·s and the viscosity (m1 = 0.9992) is recorded as 1.152 ± 0.036 mPa·s.
